We go through two compounds from patent US6955891B2 (priority 2002, dated 2005).

Experiment [1] addresses Bacillus anthracis lethal factor (Bacillus anthracis, UniProt P15917).
A further experiment addresses Lethal factor (Bacillus anthracis, UniProt P15917). The following applies: cited from earlier work.

Lethal factor, sequence (P15917 34-809 limits assumed): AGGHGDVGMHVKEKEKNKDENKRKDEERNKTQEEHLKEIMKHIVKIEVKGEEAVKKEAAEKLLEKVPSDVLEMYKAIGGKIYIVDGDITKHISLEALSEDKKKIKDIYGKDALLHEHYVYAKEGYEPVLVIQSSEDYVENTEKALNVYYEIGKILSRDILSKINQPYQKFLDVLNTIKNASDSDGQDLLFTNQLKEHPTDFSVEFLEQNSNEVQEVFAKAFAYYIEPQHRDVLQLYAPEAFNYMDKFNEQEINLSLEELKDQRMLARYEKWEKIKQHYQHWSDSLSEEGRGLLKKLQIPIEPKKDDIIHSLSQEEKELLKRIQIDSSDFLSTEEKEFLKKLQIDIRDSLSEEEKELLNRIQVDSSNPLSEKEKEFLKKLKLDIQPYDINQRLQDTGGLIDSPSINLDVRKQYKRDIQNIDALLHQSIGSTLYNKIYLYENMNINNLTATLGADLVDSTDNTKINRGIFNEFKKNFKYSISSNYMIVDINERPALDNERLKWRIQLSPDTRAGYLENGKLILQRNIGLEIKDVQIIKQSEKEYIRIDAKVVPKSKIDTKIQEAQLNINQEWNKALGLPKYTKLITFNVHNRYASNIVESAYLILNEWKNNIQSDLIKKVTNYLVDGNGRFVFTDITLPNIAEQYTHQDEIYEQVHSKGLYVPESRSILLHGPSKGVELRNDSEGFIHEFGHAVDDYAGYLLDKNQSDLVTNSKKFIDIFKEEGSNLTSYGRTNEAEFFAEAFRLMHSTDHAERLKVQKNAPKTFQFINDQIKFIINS
Bacillus anthracis lethal factor, sequence (P15917 34-809 limits assumed): as above

Turning to “(Cou)NleKKKKVLP IQLNAATDK(Q-35)GG-NH2 [(Cou)Consensus(K(QSY-35)GG)-NH2]”, the “signal/background (S/B) at 100% cleavage” value in experiment [1] is “largest S/B”.

On to `c1cnc2c(c1)ccc1cccnc12` [1,10-phenanthroline], for which the “effect on in vitro cleavage of synthetic peptides by lethal factor” value at Lethal factor is “inhibited”.
